In brackets after ≈: the same amount, converted by molar mass.
System: Escherichia coli
Assay: minimum inhibitory concentration (MIC)
Method: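 Broth microdilution MIC (Sensititre BOPO7F bovine plate, CLSI methods) of 19 antimicrobials against field isolates of P. multocida, M. haemolytica, H. somni (deep nasopharyngeal swabs) and E. coli, Enterococcus spp. (rectal swabs) from weaned dairy heifers. Incubation 16-24 h at 35 C. MIC is the lowest concentration preventing visible growth. Values with <= or > lie at the tested range limits. Trimethoprim-sulfamethoxazole is given as the trimethoprim component of a 1:19 mixture.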

CCCNC[C@]1(O)[C@H](C)O[C@@H](O[C@H]2[C@H](C)[C@@H](O[C@@H]3O[C@H](C)C[C@H](N(C)C)[C@H]3O)[C@](C)(O)C[C@@H](C)CN[C@H](C)[C@@H](O)[C@](C)(O)[C@@H](CC)OC(=O)[C@@H]2C)C[C@@]1(C)OC [Tulathromycin]
Details	minimum inhibitory concentration [µg/mL]
isolate (source animal id): 8	≤ 8
isolate (source animal id): 9	16 (≈ 19.8 µM)
isolate (source animal id): 10	16 (≈ 19.8 µM)
isolate (source animal id): 11	≤ 8
isolate (source animal id): 12	≤ 8
isolate (source animal id): 13	≤ 8
isolate (source animal id): 14	≤ 8
isolate (source animal id): 15	≤ 8
isolate (source animal id): 16	≤ 8
isolate (source animal id): 98	≤ 8
isolate (source animal id): 99	≤ 8
isolate (source animal id): 100	≤ 8
isolate (source animal id): 101	≤ 8
isolate (source animal id): 102	≤ 8
isolate (source animal id): 103	≤ 8
isolate (source animal id): 104	16 (≈ 19.8 µM)
isolate (source animal id): 105	≤ 8
isolate (source animal id): 106	16 (≈ 19.8 µM)
isolate (source animal id): 107	16 (≈ 19.8 µM)
isolate (source animal id): 108	16 (≈ 19.8 µM)
isolate (source animal id): 109	≤ 8
isolate (source animal id): 110	≤ 8
isolate (source animal id): 111	≤ 8
isolate (source animal id): 112	≤ 8
isolate (source animal id): 113	≤ 8
isolate (source animal id): 114	≤ 8
isolate (source animal id): 115	64 (≈ 79.4 µM)
isolate (source animal id): 116	≤ 8
isolate (source animal id): 117	16 (≈ 19.8 µM)
isolate (source animal id): 118	≤ 8
isolate (source animal id): 119	32 (≈ 39.7 µM)
isolate (source animal id): 120	≤ 8
isolate (source animal id): 121	≤ 8
isolate (source animal id): 122	≤ 8
isolate (source animal id): 123	≤ 8
isolate (source animal id): 124	16 (≈ 19.8 µM)
isolate (source animal id): 125	≤ 8
isolate (source animal id): 126	16 (≈ 19.8 µM)
isolate (source animal id): 127	16 (≈ 19.8 µM)
isolate (source animal id): 128	≤ 8
isolate (source animal id): 129	≤ 8
isolate (source animal id): 130	≤ 8
isolate (source animal id): 131	≤ 8
isolate (source animal id): 132	≤ 8
isolate (source animal id): 133	≤ 8
isolate (source animal id): 134	≤ 8
isolate (source animal id): 135	≤ 8
isolate (source animal id): 136	≤ 8
isolate (source animal id): 137	≤ 8
isolate (source animal id): 138	32 (≈ 39.7 µM)
isolate (source animal id): 139	≤ 8
isolate (source animal id): 140	≤ 8
isolate (source animal id): 141	≤ 8
isolate (source animal id): 142	≤ 8
isolate (source animal id): 143	16 (≈ 19.8 µM)
isolate (source animal id): 144	16 (≈ 19.8 µM)
isolate (source animal id): 145	16 (≈ 19.8 µM)
isolate (source animal id): 146	16 (≈ 19.8 µM)
isolate (source animal id): 147	≤ 8
isolate (source animal id): 148	≤ 8
isolate (source animal id): 149	≤ 8
isolate (source animal id): 150	≤ 8
isolate (source animal id): 151	≤ 8
isolate (source animal id): 152	≤ 8
isolate (source animal id): 153	≤ 8
isolate (source animal id): 154	≤ 8
isolate (source animal id): 155	≤ 8
isolate (source animal id): 156	≤ 8
isolate (source animal id): 157	≤ 8
isolate (source animal id): 158	≤ 8
isolate (source animal id): 159	≤ 8
isolate (source animal id): 160	≤ 8
isolate (source animal id): 161	≤ 8
isolate (source animal id): 162	≤ 8
isolate (source animal id): 163	16 (≈ 19.8 µM)
isolate (source animal id): 164	≤ 8
isolate (source animal id): 165	≤ 8
isolate (source animal id): 166	≤ 8
isolate (source animal id): 167	16 (≈ 19.8 µM)
isolate (source animal id): 168	≤ 8
isolate (source animal id): 169	≤ 8
isolate (source animal id): 170	≤ 8
isolate (source animal id): 171	≤ 8
isolate (source animal id): 172	≤ 8
isolate (source animal id): 173	≤ 8
isolate (source animal id): 174	≤ 8
isolate (source animal id): 175	16 (≈ 19.8 µM)
isolate (source animal id): 176	≤ 8
isolate (source animal id): 177	≤ 8
isolate (source animal id): 178	≤ 8
isolate (source animal id): 179	≤ 8
isolate (source animal id): 180	≤ 8
isolate (source animal id): 181	≤ 8
isolate (source animal id): 182	16 (≈ 19.8 µM)
isolate (source animal id): 183	≤ 8
isolate (source animal id): 184	≤ 8
isolate (source animal id): 185	16 (≈ 19.8 µM)
isolate (source animal id): 186	≤ 8
isolate (source animal id): 187	≤ 8
isolate (source animal id): 188	≤ 8

Reference: the supplement of paper PMC8612539
